Reference: PMC12838479 (Fluids and Barriers of the CNS, 2025)

Tests used:
[1] = test system: BBB; assay: Percent of the injected dose that entered each g of brain (%Inj/g), 10 min; type: in vivo, mice; settings: for %Inj/g-brain: 10 min; for increase in %Inj/g-brain: three injections of LPS vs control
Excerpt: (§1) where t is the time between i.v. injection and blood draw, Cp is the level of radioactivity in serum (expressed as %Inj/ml), Cpt is the level of radioactivity in serum at time t, and τ is the dummy variable for time. Exposure time corrects for the clearance of the compound of interest from blood. The Y-intercept measures Vi (in units of µl/g), which is the vascular space and initial luminal binding at t = 0. Ki and Vi values are reported with their standard errors and the number of mice included in the linear portion of the regression curve. Slopes and intercepts were compared statistically with program in Prism 10.0 (GraphPad Inc, San Diego, CA). The percent of the injected dose that entered each g of brain (%Inj/g) was calculated after washout of the vascular space using the equation: […]
where cpm/g is the level of radioactivity in the brain tissue, g is the weight of the brain tissue, and cpmi is the amount of radioactivity injected intravenously.

[2] = test system: BBB; assay: Single time point (10 min) brain/serum ratio after iv co-injection in control and LPS-treated mice; settings: for brain region permeability change: 10 min after iv injection, one-way ANOVA per region; for increase in brain/serum ratio (leakiness): three dose LPS vs control
Excerpt: (§2) Treatment with LPS: Male CD-1 mice were purchased from Charles River and studied at 8–12 weeks of age. All animal studies were approved by the Institutional Animal Care and Use Committee of the Veterans Affairs Puget Sound Health Care System, an IACUC approved institution, in compliance with the Association for Assessment and Accreditation of Laboratory Animal Care International. Lipopolysaccharide (LPS) derived from Salmonella enterica subtype typhimurium (#L6511) was purchased from Sigma Chemical Company. Mice were given IP injections of approximately 0.1 ml of saline at 0, 6, or 24 h with LPS included in no injections, in only the single 0 h injection, or in all (0, 6, and 24 h) injections at a dose of 3 mg/kg LPS. Mice were studied 28 h after the 0 h injection (4 h after the last injection).
(§3) After a specified time, the abdomen was opened and arterial blood obtained from the abdominal aorta and immediately the thorax was opened, the descending thoracic aorta was clamped, both jugular veins were severed, the left ventricle of the heart was cannulated, and 20 ml of cold LR-BSA perfused in 60 s via the left ventricle of the heart in order to wash out the vascular space of the brain. After this, brains were collected and counted in a gamma counter. […] Brain/serum ratios are expressed in units of µl/g.
(§4) In some studies, mice were studied only at 10 min after the jugular injection of radioactivity. For multiple-time regression analysis, mice were sacrificed at 1, 2, 5, 10, 15, and 30 min after the jugular injection.

[3] = test system: BBB; assay: Multiple-time regression analysis of BBB uptake (Ki, Vi) in control and LPS-treated mice; type: in vivo
Excerpt: as §1

[4] = test system: human induced pluripotent stem cell (iPSC)-derived brain endothelial-like cells (iBECs); assay: In vitro monolayer iBEC permeability (Transwell leakage) versus TEER; type: in vitro ADME; settings: iBEC monolayers, all TEER levels
Method: In Vitro BBB model: Differentiation of iBECs: The varied TEERs of iBECs were achieved during initial experiments that optimized seeding densities for differentiation of the GM25256 iPSC line. iBECs were differentiated from the GM25256 cell line using protocols described by Hollmann et al.. These resulting iBECs have been previously characterized to have many BEC traits including expression of high TEER levels and GLUT1, CLDN5, VE-Cad, PECAM-1, ZO-1, and OCLN proteins. Briefly, iPSCs were grown in E8 Medium on Matrigel in 6-well plates. When colonies were large and nearly touching, but prior to confluence, iPSCs were washed once with DPBS (Thermo Fisher Scientific) and incubated with Accutase (Stem Cell Technologies) for 3 min to yield a single cell suspension. Cells were collected via centrifugation, resuspended in E8, and counted using a hemocytometer. […] To assess barrier properties, TEER was measured 24 h after subculture using an EVOM2 voltohmeter with an EndOhm cup chamber (World Precision Instruments). […] TEER was measured approximately every 24 h thereafter. […]
Leakage was further assessed after 1–14 days post-subculture by placing in the input medium, consisting of HESFM + 1% BSA, 0.1 µCi ^14C-sucrose and 1 million CPM ^99mTc-DTPA or 3 million CPM ^99mTc-albumin per Transwell. […] Then, the radioactivity was counted in a Tricarb beta counter (Perkin Elmer) to measure ^14C-sucrose levels. […]

[5] = Single time point (10 min) brain/serum ratio after iv co-injection in control and LPS-treated mice; settings: male, CD-1, mouse, in vivo
Excerpt: as §2, §3, §4

[6] = 10 min, DTPA and albumin co-injected

Row | Compound | %Inj/g-brain ([1]; control mice) | increase in %Inj/g-brain [1] | %Inj/g-brain ([1]; three injections of LPS) | increase in brain/serum ratio (leakiness) [2, 6] | Vi (vascular space and initial luminal binding) ([3]; control mice) | Vi (vascular space and initial luminal binding) ([3]; single injection of LPS) | Vi (vascular space and initial luminal binding) ([3]; three injections of LPS) | in vitro permeability (Pe) compared with simultaneously studied sucrose [4] | other results
1 | O=C(O)CN(CCN(CC(=O)O)CC(=O)O)CCN(CC(=O)O)CC(=O)O (99mTc complex, metal not drawn) [DTPA, Diethylenetriaminepentaacetic acid] | 0.035 %Inj/g-brain | 117% | 0.0760 %Inj/g-brain | 136% | 1.62 ± 0.29 µL/g | 1.43 ± 0.334 µL/g | 1.487 ± 1.104 µL/g | essentially identical in vitro results | mean percent increase in permeability of 4 sessions ([2]; 3 dose injection of LPS, DTPA and sucrose co-injected): 79.2 +/- 16%; brain region permeability change ([2]; 3 injections of LPS): all regions except the olfactory bulb had a significant increase; detection of BBB disruption ([2]; 10 min, DTPA and albumin co-injected, LPSx1 and LPSx3): showed disruption at the single dose of LPS as well as at the three doses; control brain/serum ratio relative to albumin ([2]; 10 min, simultaneous injection of DTPA and albumin, control mice): about 5 fold; % change of brain/serum ratio relative to respective Control ([2]; LPSx1, Day 1): 12%; % change of brain/serum ratio relative to respective Control ([2]; LPSx1, Day 2): -0.025%; % change of brain/serum ratio relative to respective Control ([2]; LPSx1, Repeat Day 2): 29%; % change of brain/serum ratio relative to respective Control ([2]; LPSx3, Day 1): 79%; % change of brain/serum ratio relative to respective Control ([2]; LPSx3, Day 2): 57%; BBB disruption, combined data of 4 sessions ([2]; one injection of LPS): did not disrupt the BBB; brain region permeability change ([2]; single injection of LPS): No brain region had a statistically significant increase in permeability; increase in permeation, combined data of 4 sessions ([2]; three injections of LPS): 69%
2 | OC[C@H]1O[C@@](CO)(O[C@H]2O[C@H](CO)[C@@H](O)[C@H](O)[C@H]2O)[C@@H](O)[C@@H]1O [sucrose] |  |  |  |  | 8.43 ± 1.26 µL/g | 16.2 µL/g | 14.5 ± 4.82 µL/g |  | Kp at 10 min [5]: 0.00402 to 0.00518
3 | bovine serum albumin | 0.026 %Inj/g-brain | 81% | 0.0490 %Inj/g-brain | 111% | 0.245 ± 0.0431 µL/g | 0.197 ± 0.0438 µL/g | 0.325 ± 0.0893 µL/g | much lower penetration than sucrose at all TEER levels | 
